Experimental data published in the NIST ThermoML archive (doi:10.1016/j.tca.2015.01.022).

Assay: molar heat capacity at constant pressure
Conditions: 101.33 kPa, Small (less than 1 g) adiabatic calorimetry

CCCCCCCC[n+]1ccn(C)c1.F[B-](F)(F)F [1-methyl-3-octylimidazolium tetrafluoroborate]
Conditions	molar heat capacity at constant pressure [J/K/mol]
148.21 K, Glass	270.7
149.81 K, Crystal	251.1
150 K, Crystal	251.3
150 K, Glass	273.5
150.08 K, Crystal	251.3
150.11 K, Glass	273.6
151.75 K, Crystal	253.4
152 K, Glass	276.6
152.02 K, Crystal	253.6
153.69 K, Crystal	255.7
153.91 K, Glass	279.6
153.96 K, Crystal	255.9
155.63 K, Crystal	258
155.81 K, Glass	282.6
155.9 K, Crystal	258.3
157.57 K, Crystal	260.3
157.72 K, Glass	285.4
157.84 K, Crystal	260.6
159.5 K, Crystal	262.7
159.62 K, Glass	288.5
159.77 K, Crystal	263
160 K, Crystal	263.2
160 K, Glass	289.3
161.44 K, Crystal	265.2
161.53 K, Glass	291.6
161.71 K, Crystal	265.3
162.37 K, Glass	293
163.37 K, Crystal	267.5
163.44 K, Glass	294.7
163.64 K, Crystal	267.7
164.32 K, Glass	296.1
165.31 K, Crystal	270
165.35 K, Glass	297.8
165.57 K, Crystal	270.2
166.17 K, Glass	299.2
167.24 K, Crystal	272.5
167.26 K, Glass	301.2
167.5 K, Crystal	272.7
168.01 K, Glass	302.3
169.16 K, Crystal	275
169.17 K, Glass	304.3
169.43 K, Crystal	275.2
169.85 K, Glass	305.4
170 K, Crystal	276
170 K, Glass	305.6
171.09 K, Crystal	277.5
171.09 K, Glass	307.7
171.36 K, Crystal	277.7
171.68 K, Glass	308.8
173 K, Glass	311.1
173.01 K, Crystal	280.1
173.28 K, Crystal	280.3
173.52 K, Glass	311.9
174.93 K, Crystal	282.6
174.93 K, Glass	314.5
175.2 K, Crystal	282.9
175.35 K, Glass	315.3
176.85 K, Crystal	285.4
176.85 K, Glass	318.4
177.12 K, Crystal	285.7
177.17 K, Glass	319.3
178.76 K, Crystal	288.3
178.77 K, Glass	322.6
179 K, Glass	322.9
179.03 K, Crystal	288.3
180 K, Crystal	290
180 K, Glass	325.4
180.67 K, Crystal	291.1
180.7 K, Glass	327.1
180.82 K, Glass	327.4
180.94 K, Crystal	291.4
182.58 K, Crystal	293.9
182.63 K, Glass	332.5
182.85 K, Crystal	294.2
184.43 K, Glass	338.1
184.48 K, Crystal	296.7
184.56 K, Glass	339
184.75 K, Crystal	297
186.22 K, Glass	345.5
186.38 K, Crystal	299.8
186.48 K, Glass	348
186.65 K, Crystal	299.8
187.99 K, Glass	355.9
188.27 K, Crystal	302.6
188.39 K, Glass	361.5
188.55 K, Crystal	302.6
189.72 K, Glass	373.1
190 K, Crystal	305
190 K, Glass	380.4
190.16 K, Crystal	305.4
190.27 K, Liquid	387.4
190.44 K, Crystal	305.4
191.35 K, Liquid	408.9
192.04 K, Crystal	308.3
192.05 K, Liquid	444.4
192.32 K, Crystal	308.5
192.85 K, Liquid	463.5
193.84 K, Liquid	466.1
193.92 K, Crystal	311.4
194.2 K, Crystal	311.6
194.36 K, Liquid	466.3
195.76 K, Liquid	466.6
195.8 K, Crystal	314.5
196.08 K, Crystal	314.7
197.67 K, Crystal	317.3
197.7 K, Liquid	465.8
197.95 K, Crystal	317.8
199.54 K, Crystal	320.7
199.64 K, Liquid	464.9
199.82 K, Crystal	320.9
200 K, Crystal	320
200 K, Liquid	464.9
201.46 K, Crystal	323.8
201.58 K, Liquid	464.7
201.81 K, Crystal	324.6
203.44 K, Crystal	327.4
203.53 K, Liquid	464.1
203.91 K, Crystal	328.6
205.42 K, Crystal	331.1
205.47 K, Liquid	463.8
206.02 K, Crystal	332.2
207.4 K, Crystal	334.5
207.42 K, Liquid	463.5
208.11 K, Crystal	335.9
209.36 K, Liquid	463.5
209.37 K, Crystal	338.1
210 K, Crystal	335
210 K, Liquid	463.4
210.2 K, Crystal	339.8
211.3 K, Liquid	463.2
211.34 K, Crystal	342.1
212.28 K, Crystal	344.3
213.25 K, Liquid	463.5
213.29 K, Crystal	346
214.36 K, Crystal	348
